By IC50 is commonly meant the concentration at which inhibition is half-maximal.

Molecules are shown by their SMILES.

In the assay the target is T1, integrin α 4 β 7 (Homo sapiens, UniProt P13612+P26010).
T1 construct: lymphoma cell strain RPMI-8866 of human B cells, known to express integrin α 4 β 7; endogenous in cells; host or cells: RPMI-8866 (human B cell lymphoma line)
T1 sequence (P13612 34-1032): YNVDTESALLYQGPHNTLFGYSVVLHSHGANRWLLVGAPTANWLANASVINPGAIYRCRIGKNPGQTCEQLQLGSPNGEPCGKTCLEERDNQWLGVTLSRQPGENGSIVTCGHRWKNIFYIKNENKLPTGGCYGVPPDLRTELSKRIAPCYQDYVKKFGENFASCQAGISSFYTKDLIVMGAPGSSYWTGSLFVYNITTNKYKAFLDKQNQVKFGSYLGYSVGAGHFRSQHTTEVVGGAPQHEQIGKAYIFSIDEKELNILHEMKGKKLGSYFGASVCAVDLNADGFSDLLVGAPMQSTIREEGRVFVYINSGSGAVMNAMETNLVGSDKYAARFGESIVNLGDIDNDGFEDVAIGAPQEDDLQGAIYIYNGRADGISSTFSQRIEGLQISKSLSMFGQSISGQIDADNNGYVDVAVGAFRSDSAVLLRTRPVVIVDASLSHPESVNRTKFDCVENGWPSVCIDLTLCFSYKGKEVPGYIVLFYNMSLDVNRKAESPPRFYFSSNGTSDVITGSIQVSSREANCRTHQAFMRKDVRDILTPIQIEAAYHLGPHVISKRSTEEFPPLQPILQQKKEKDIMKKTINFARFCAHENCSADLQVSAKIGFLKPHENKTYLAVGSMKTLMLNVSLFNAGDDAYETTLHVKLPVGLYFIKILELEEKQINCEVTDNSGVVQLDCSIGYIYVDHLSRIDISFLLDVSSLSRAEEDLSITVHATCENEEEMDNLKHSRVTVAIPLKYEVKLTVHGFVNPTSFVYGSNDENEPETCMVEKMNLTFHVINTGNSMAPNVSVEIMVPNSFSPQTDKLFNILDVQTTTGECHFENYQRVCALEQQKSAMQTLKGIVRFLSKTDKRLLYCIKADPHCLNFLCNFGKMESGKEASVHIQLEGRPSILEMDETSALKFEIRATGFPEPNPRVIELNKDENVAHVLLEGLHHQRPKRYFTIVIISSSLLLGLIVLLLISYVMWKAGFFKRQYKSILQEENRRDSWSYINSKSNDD
T1 sequence (P26010 20-798): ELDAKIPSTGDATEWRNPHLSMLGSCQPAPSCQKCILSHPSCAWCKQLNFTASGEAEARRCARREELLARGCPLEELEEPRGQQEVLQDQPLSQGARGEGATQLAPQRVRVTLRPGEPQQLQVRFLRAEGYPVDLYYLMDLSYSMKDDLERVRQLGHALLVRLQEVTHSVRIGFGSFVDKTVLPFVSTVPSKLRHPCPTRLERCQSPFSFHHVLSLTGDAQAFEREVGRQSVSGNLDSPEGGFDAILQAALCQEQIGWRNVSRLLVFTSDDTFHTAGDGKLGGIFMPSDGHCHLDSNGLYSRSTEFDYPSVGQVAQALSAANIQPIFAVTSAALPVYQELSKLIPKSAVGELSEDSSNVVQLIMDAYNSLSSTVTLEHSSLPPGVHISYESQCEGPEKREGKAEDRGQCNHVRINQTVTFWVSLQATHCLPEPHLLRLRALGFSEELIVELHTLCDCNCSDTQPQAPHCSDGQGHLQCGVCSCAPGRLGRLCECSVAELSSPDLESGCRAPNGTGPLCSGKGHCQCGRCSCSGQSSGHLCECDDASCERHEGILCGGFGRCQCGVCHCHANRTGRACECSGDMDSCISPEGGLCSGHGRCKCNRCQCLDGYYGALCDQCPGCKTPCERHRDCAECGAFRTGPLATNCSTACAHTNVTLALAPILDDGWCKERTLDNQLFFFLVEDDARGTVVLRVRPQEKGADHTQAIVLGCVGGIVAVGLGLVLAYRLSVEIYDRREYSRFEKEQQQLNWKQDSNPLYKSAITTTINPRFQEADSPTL
The experiment in a line: VCAM antagonistic activity (VCAM-1/α 4 β 7 binding assay): binding of RPMI-8866 cells to VCAM-1. Type of assay: cell-based. To be noted: fluorescent RPMI-8866 cells binding to recombinant human VCAM-1, 4 mM MnCl2, room temperature 30 minutes. The procedure:
(Test Example) VCAM Antagonistic Activity (VCAM-1/α 4 β 7 Binding Assay)
The capacity of a test substance antagonistic to the binding of lymphoma cell strain RPMI-8866 of human B cells, known to express integrin α 4 β 7, to VCAM-1 was determined.
100 μl/well of a solution (500 ng/ml) of recombinant human VCAM-1 (R & D systems) solution diluted with buffer A (0.1 M NaHCO3, pH 9.6) was added to a micro titer plate having 96 wells (Nunc Maxisorp). After the incubation at 4° C. overnight, unbound VCAM-1 was removed by washing once with PBS. After completion of the washing, a buffer (buffer B) obtained by diluting Block Ace (Dainippon Pharmaceutical Co., Ltd.) with PBS to ¼ concentration was added in an amount of 150 μl/well. After the incubation at room temperature for 1 hour, buffer B was removed and the plate was washed with PBS once.
RPMI-8866 cells were incubated in Dulbecco modified Eagle medium containing 10 μg/ml of Calcein-AM (Wako Pure Chemical Industries, Ltd.) (SIGMA, hereinafter referred to as “DMEM”) at 37° C. for 30 minutes to label with fluorescence. The cells were again suspended in a binding buffer (20 mM HEPES, DMEM containing 0.1% BSA) containing 4 mM of MnCl2.
50 μl of a test substance of various concentrations obtained by the dilution with the binding buffer was added to the plate. Immediately thereafter, 50 μl (final volume: 100 μl/well) of the fluorescent RPMI-8866 cells (4×10^6 cells/ml) were added thereto, and they were incubated at room temperature for 30 minutes. After the shaking on a plate shaker (IKA MTS-4) at 800 rpm for 30 seconds, the solution was immediately removed to remove the unbound cells. The fluorescence quantity of the bound cells remaining in the wells was determined with a fluorescent plate reader (Wallac 1420 ARVO multi-label counter) (filter excitation wave length: 485 nm, emission wave length: 535 nm). The fluorescent strength thus obtained is proportional to the number of RPMI-8866 cells bound to VCAM-1 and remaining on the plate. The binding rate of each test material in various concentrations was determined while the fluorescent strength of the test material-free well was determined to be 100%. The concentration IC50 for the 50% binding inhibition was calculated.
The antagonistic activity is shown as A when IC50 is 0.8 μmol/L or less, B when IC50 is above 0.8 μmol/L and 4 μmol/L or less, C when IC50 is above 4 μmol/L and 20 μmol/L or less, and D when IC50 is above 20 μmol/L and 100 μmol/L or less.
Consider `Cn1c(=O)n(-c2ccc(CC(CC(=O)c3ccccc3)C(=O)O)cc2)c(=O)c2ccccc21` (stereo not drawn) [Example 1, 4-phenyl-2-[4-(1-methyl-2,4-dioxo-1,2,3,4-tetrahydroquinazoline-3-yl)benzyl]-4-oxobutanoic acid], for which the IC50 is 20 to 100 µM.

`Cn1c(=O)n(-c2ccc(CC(CC(=O)c3c(Cl)cccc3Cl)C(=O)O)cc2)c(=O)c2ccccc21` (stereo not drawn) [Example 2, 4-(2,6-dichlorophenyl)-2-[4-(1-methyl-2,4-dioxo-1,2,3,4-tetrahydroquinazoline-3-yl)benzyl]-4-oxobutanoic acid]: the IC50 was at most 0.8 µM.

For `Cn1c(=O)n(-c2ccc(CC(CC(=O)c3c(F)cccc3F)C(=O)O)cc2)c(=O)c2ccccc21` (stereo not drawn) [Example 3, 4-(2,6-difluorophenyl)-2-[4-(1-methyl-2,4-dioxo-1,2,3,4-tetrahydroquinazoline-3-yl)benzyl]-4-oxobutanoic acid], the IC50 is 0.8 to 4 µM.

With `Cn1c(=O)n(-c2ccc(/C=C(\CC(=O)c3c(Cl)cccc3Cl)C(=O)O)cc2)c(=O)c2ccccc21` [Example 5, (E)-2-[2-(2,6-dichlorophenyl)-2-oxoethyl]-3-[4-(1-methyl-2,4-dioxo-1,2,3,4-tetrahydroquinazoline-3-yl)phenyl]acrylic acid], the IC50 was at most 0.8 µM.

Consider `COC(=O)c1ccccc1NC(=O)Nc1ccc(CC(CC(=O)c2c(Cl)cccc2Cl)C(=O)O)cc1` (stereo not drawn) [Example 6, 4-(2,6-dichlorophenyl)-2-[4-[[(2-methoxycarbonylphenyl)amino]carbonylamino]benzyl]-4-oxobutanoic acid], for which the concentration for half-maximal inhibition (IC50) lay in the range of 20 to 100 µM.

For `Cn1c(=O)n(-c2ccc(CC(CC(O)c3c(Cl)cccc3Cl)C(=O)O)cc2)c(=O)c2ccccc21` (stereo not drawn) [Example 7, 4-(2,6-dichlorophenyl)-4-hydroxy-2-[4-(1-methyl-2,4-dioxo-1,2,3,4-tetrahydroquinazoline-3-yl)benzyl]butanoic acid], the IC50 fell in the range of 20 to 100 µM.

For the origin of these results see patent US7193108B2, “Phenylpropionic acid derivatives” (Ajinomoto Co., Inc., priority 2001, dated 2007).
